From patent US20160360749A1, “METHOD FOR […] […]” (ExxonMobil Research and Engineering Company, priority 2015, published 2016)

Legend:
[1] = Carbon steel coupon weight loss in a sterile environment without DvH inoculation; settings: 2 mM indole, carbon steel coupons, FIG. 1
Protocol: (§1) Carbon steel coupons were incubated in the presence of 0 and 2 mM indole, with and without an inoculum of DvH.
(§2) The metal loss of the carbon steel coupons was measured. FIG. 1 is a bar graph comparing corrosion as measured in coupon weight loss under the compound (indole) and SRB (DvH) tested.
(§3) Rectangular X52 carbon steel coupons were polished on 600 grit sand paper and weighed prior to the experiment. 60 ml of L30S30B2 media containing 0-2 mM indole was anaerobically transferred into each autoclaved serum bottle with 1 coupon hung on plastic fishing wire. 1 ml of a DvH overnight culture was inoculated into each bottle and incubated at 30° C. with gentle shaking for 3 days. After the incubation the coupons were descaled with Clarke's solution (tin choloride and antimony oxide in concentrated hydrochloric acid), rinsed with water, dried under nitrogen gas, and weighed again. The metal weight loss after exposure to DvH was then calculated.

[2] = tested on: Desulfovibrio vulgaris Hildenborough (DvH); experiment: DvH metabolism by ion chromatography (lactate, sulfate, acetate); format: cell-based; settings: 0.5-2 mM indole, FIG. 2B, 2 replicates
Protocol: (§4) Steel coupons were incubated in cultures of DvH for three days with and without indole and then the coupons were measured to determine the amount of metal loss due to corrosion. […] The error bars represent the standard error of the mean from 2 replicates.
The wild-type D. vulgaris Hildenborough (DvH) was obtained from Judy Wall at the University of Missouri and Adam Deutchbauer at the Lawrence Berkeley National Laboratory. Freezer stocks of DvH containing 10% glycerol were used to inoculate overnight cultures. The growth media (L30S30B2) contained 30 mM lactate, 30 mM sulfate, 8 mM MgCl2, 20 mM NH4Cl, 2.2 mM phosphate buffer, 0.6 mM CaCl2, 24 mM NaCO3, 0.02% resazurin, 0.06 mM FeCl2, trace elements and Thauer's vitamins (Lee et al., “Indole as an intercellular signal in microbial communities,” 2010, pp. 426-444) with pH adjusted to 7.2. […]
Ion Chromatography (IC)—One milliliter of cultures were extracted at the beginning and the end of the experiment, centrifuged at 14000 rpm for 2 min, filtered through 0.2 μm cellulose acetate filters, and kept at −20° C. until further IC analysis. Anions of lactate, sulfate, and acetate were quantified using suppressed conductivity on a Dionex ICS-5000 Reagent-Free HPIC System with a Dionex IonPac AS 11-HC column (0.4 mm×250 mm, Thermo Fisher, Massachusetts, USA). […]

[3] = tested on: Desulfovibrio vulgaris Hildenborough (DvH); experiment: Carbon steel coupon weight loss analysis in DvH cultures; format: cell-based
Protocol: as §1, §2, §4
The wild-type D. vulgaris Hildenborough (DvH) was obtained from Judy Wall at the University of Missouri and Adam Deutchbauer at the Lawrence Berkeley National Laboratory. Freezer stocks of DvH containing 10% glycerol were used to inoculate overnight cultures. The growth media (L30S30B2) contained 30 mM lactate, 30 mM sulfate, 8 mM MgCl2, 20 mM NH4Cl, 2.2 mM phosphate buffer, 0.6 mM CaCl2, 24 mM NaCO3, 0.02% resazurin, 0.06 mM FeCl2, trace elements and Thauer's vitamins (Lee et al., “Indole as an intercellular signal in microbial communities,” 2010, pp. 426-444) with pH adjusted to 7.2. Media was bubbled with 15% CO2 balance N2 and sodium dithionite was added immediately before inoculation to a final concentration of […]. Media containing 0-4 mM indole was made by anaerobically mixing varied volumes of L30S30B2 and L30S30B2 supplemented with 4 mM indole (Sigma-Aldrich, 13408).
as §3

For c1ccc2[nH]ccc2c1 [indole], the “reduction in coupon weight loss in sterile environment” value [1] was “not replicated”, the “metabolism of DvH (consumption of lactate and sulfate, production of acetate)” value [2] was “not significantly affected” and the “reduction of corrosion (coupon weight loss) compared to the no indole treatment” value ([3]; 2 mM indole, carbon steel coupons, in the presence of DvH (MIC), FIG. 1) was 2 fold. The “metal loss of coupons incubated in the absence of indole relative to coupons in the presence of indole” value ([3]; 0.5-2 mM indole, steel coupons in DvH cultures, three days, FIG. 2A) was ~2 fold and the “corrosion of metal coupons” value ([3]; 0.5 to 2 mM indole, DvH cultures, three days) was “little to no corrosion”.
